In ChEMBL document CHEMBL2203172, “Synthesis of chiral hydroxylated enones as potential anti-tumor agents” (Bioorg Med Chem Lett, 2012):

How the values were obtained:
HL-60 = assay: Cytotoxicity against human HL60 cells; assay type: functional, cell-based
WRL68 = assay: Cytotoxicity against human WRL68 cells; assay type: cell-based
HepG2 = assay: Cytotoxicity against human HepG2 cells; assay type: functional, cell-based

| SMILES | IC50 (HL-60) [µM] | IC50 (WRL68) [µM] | IC50 (HepG2) [µM] |
| --- | --- | --- | --- |
| CO[C@H]1C=C(COC(C)=O)C(=O)[C@H](O)[C@H]1O | > 50 | > 200 | > 50 |
| CCCCCCCO[C@H]1C=C(COC(C)=O)C(=O)[C@H](O)[C@H]1O | 39.8 | 152 | > 50 |
| CC(=O)OCC1=C[C@H](OCc2ccc3ccccc3c2)[C@H](O)[C@@H](O)C1=O | > 50 | > 200 | > 50 |
| CC(=O)OCC1=C[C@H](OCc2ccc(-c3ccccc3)cc2)[C@H](O)[C@@H](O)C1=O |  | 71.3 |  |
| CCCO[C@H]1C=C(COC(C)=O)C(=O)[C@H](O)[C@H]1O | 10.1 | 191 | 33.6 |
| CCCCCO[C@H]1C=C(COC(C)=O)C(=O)[C@H](O)[C@H]1O | 3.1 | 169 | 16.1 |
| CCCCCO[C@@H]1C=C(COC(C)=O)C(=O)[C@H](O)[C@H]1O | 2.6 | 48.3 | 10.1 |
| OCC1=C[C@H](O)[C@H](O)[C@@H](O)[C@@H]1O [STREPTOL] | > 50 | > 200 | > 50 |
